Laboratory results published in patent publication US20240382484A1, “COMPOSITION FOR TREATING, PREVENTING, OR AMELIORATING MELANOMA AND METHOD THEREOF” (Thomas Jefferson University, priority 2021, published 2024).

Experiments:
[1] = tested on: human NRAS mutant melanoma cell lines; experiment: 72 hours drug combination, cell density by IncuCyte, synergy by Combenefit with Loewe method; assay type: cell-based; settings: for synergy with MEKi (trametinib): WM1361A and WM1366 cells, 72 hours
[2] = tested on: mouse Nras mutant melanoma cell lines; experiment: as above; assay type: cell-based; settings: two mouse lines (1007 and 1014), 3-day treatment
Method: FIG. 2A: NRAS mutant melanoma cell line WM1361A, WM1366, SK-MEL-30, SK-MEL-173, 1007 and 1014 were treated for 72 hours as indicated with GSK2334470 and trametinib and analyzed for cell density by IncuCyte. Synergy graphs were generated utilizing Combenefit Software with Loewe method. Data are represented as the mean from three biological independent experiments. FIG. 2B: WM1361A, WM1366, SK-MEL-30 or SK-MEL-173 cells were treated with GSK2334470 (PDPK1i) and trametinib (tram) alone or in combination (comb) at the indicated concentrations for 7 days. Cell growth was monitored by IncuCyte every 2 hours. Media were replaced twice with drugs during culture. Data are represented as the mean±SEM of three biological independent experiments. p values were calculated with an unpaired two-tailed t test. n.s., not significant.
To further analyze synergistic effects, the growth response of a panel of several NRAS mutant cells to titrated PDPK1i (GSK2334470) and MEKi (trametinib) combinations was assessed.
Human WM1361A and WM1366 melanoma cell lines were cultured in MCDB153 (Sigma) with 2% FBS, 20% Leibowitz L-15 medium, and 5 μg/mL insulin (WM medium). […] Cell lines were STR analyzed, confirmed for NRAS/Nras mutation, and tested to be mycoplasma-free during experiments. For cell proliferation and drug response, cells were monitored by IncuCyte® (Essen Bioscience, Ann Arbor, MI) every 2 hours.

WM1361A-iCas9 #1 cells = experiment: Growth inhibition by single agents or combined inhibitors for 3 days, Bliss independence model; assay type: cell-based, human
Method: FIGS. 1A-1H: CRISPR screen identifies PDPK1, in accordance with some embodiments. FIG. 1A: Workflow of the CRISPR-Cas9 screen for genes that are essential for cell survival or act as regulators of trametinib (MEKi) sensitivity and resistance in NRAS mutant melanoma WM1361A-iCas9 #1 cells. FIGS. 1B-1D: WM1361A-iCas9 #1 cells were transduced with the Guide-it CRISPR Genome-Wide sgRNA Library. After 3 days, mCherry positive cells were determined by FACS analysis (FIG. 1). On the 24th day post infection, the cells were treated with 20 nM trametinib for further 14 days (FIG. 1C) or 0.01-0.02 nM trametinib for further 28 days (FIG. 1D). The top enriched or depleted sgRNAs targeted genes are shown. FIG. 1E, The top depleted sgRNAs targeted genes before trametinib treatment. FIG. 1F: WM1361A-iCas9 #1 cells were treated with single agents or combined inhibitors for 3 days. The growth inhibition was shown as observed inhibition (left), or was calculated as Bliss independence model (middle). The synergistic or antagonist effects (right) were calculated as Observed inhibition %−Expected inhibition %. […]
The present study further analyzed druggable essential genes with high STARS scores (>2.14 of NRAS) in WM1361A-iCas9 cells which were also identified as therapeutic targets with high priority scores (>30) in NRAS mutant melanoma SK-MEL-2 cells in a published database. […]

NRAS mutant melanoma = settings: Phase III, NRAS mutant melanoma patients; cited from earlier work

SMILES: Cc1nc(-c2cn3c(n2)-c2ccc(-c4cnn(C(C)(C)C(N)=O)c4)cc2OCC3)n(C(C)C)n1 [GDC-0032]
- synergy with MEKi (trametinib) [1]: synergy with trametinib comparable to those with PDPK1i

SMILES: CNc1nc(-c2ccc3c(N)n[nH]c3c2)cc(N2C[C@@H](C(=O)NC3CCCCC3)CC[C@H]2C)n1 [GSK2334470, (3S,6R)-1-[6-(3-Amino-1H-indazol-6-yl)-2-(methylamino)-4-pyrimidinyl]-N-cyclohexyl-6-methyl-3-piperidinecarboxamide]
- synergistic inhibition of cell viability, PDPK1i (GSK2334470) and MEKi (trametinib) combinations [2]: Synergistic inhibition
- synergy with MEKi (trametinib) on growth inhibition (WM1361A-iCas9 #1 cells): synergistic
- synergistic inhibition of cell viability, PDPK1i (GSK2334470) and MEKi (trametinib) combinations ([1]; two Cas9-expressed cell lines and four parental human lines (WM1361A, WM1366, SK-MEL-30, SK-MEL-173), 3-day treatment): Synergistic inhibition

SMILES: Cn1cnc2c(F)c(Nc3ccc(Br)cc3F)c(C(=O)NOCCO)cc21 [Binimetinib, 5-((4-bromo-2-fluorophenyl)amino)-4-fluoro-N-(2-hydroxyethoxy)-1-methyl-1H-benzo[d]imidazole-6-carboxamide]
- progression-free survival over standard chemotherapy (dacarbazine) (NRAS mutant melanoma): modest advantage

SMILES: Cl.Cl.NC1(c2ccc(-c3nc4ccn5c(=O)[nH]nc5c4cc3-c3ccccc3)cc2)CCC1 [MK-2206 2HCl]
- synergy with MEKi (trametinib) [1]: reduced synergy and even antagonistic effects

SMILES: COc1ccc(-c2ccc3c(N4CCOC[C@@H]4C)nc(N4CCOC[C@@H]4C)nc3n2)cc1CO [AZD8055]
- synergy with MEKi (trametinib) [1]: reduced synergy and even antagonistic effects
